US12570641B2, “Solid forms of a CDK4 inhibitor” (Pfizer Inc., priority 2020, dated 2026)

Columns and labels:
Format in all cases: physicochemical
[1] = Accelerated solid state chemical/humidity stability by UPLC; conditions: for % impurity RRT 0.89 / % impurity RRT 1.31: UPLC
Protocol: Accelerated solid state chemical stability and photostability of PF-07220060 monohydrate (Form 2) was investigated. Solid state chemical/humidity stability of PF-07220060 monohydrate (Form 2) was evaluated by UPLC (ultra performance liquid chromatography) analysis after storage at 70° C./5% RH and 70° C./75% RH for one week, and at 40° C./5% RH and 40° C./75% RH for 6 weeks. The percentage of identified impurity peaks at the indicated RRT (relative retention time) values were determined under the challenge conditions versus a control sample stored at ambient temperature. RRT is calculated by dividing the retention time (RT) of the impurity by the RT of Form 2. Data at 70° C./5% RH and 70° C./75% RH for one week are provided in Table 14 and Table 15, respectively.

[2] = Solid form of control and stressed samples by powder X-ray diffraction
Protocol: Powder X-ray diffraction analysis was conducted using a Bruker AXS D8 Endeavor diffractometer equipped with a copper radiation source. The divergence slit was set at 15 mm continuous illumination. Diffracted radiation was detected by a PSD-Lynx Eye detector, with the detector PSD opening set at 2.99 degrees. The X-ray tube voltage and amperage were set to 40 kV and 40 mA respectively. Data was collected at the copper (Cu) wavelength (CuKα=[…]) in the Theta-Theta goniometer from 3.0 to 40.0 degrees 2-Theta. A step size of 0.01 degrees and a step time of 1.0 second was used for Form 2, Form 6 and Form 8. A step size of 0.02 degrees and a step time of 0.3 seconds was used for Form 11. The antiscatter screen was set to a fixed distance of 1.5 mm. Samples were rotated during data collection. Samples were prepared by placing them in a silicon low background sample holder and rotated during collection. Data were collected using Bruker DIFFRAC Plus software and analysis was performed by EVA diffract plus software.
Powder X-ray diffraction was used to assess the solid form of the control and the stressed samples.

[3] = Moisture sorption (hygroscopicity), water sorption and desorption
Protocol: Water sorption and desorption studies were conducted on an automated vapor sorption analyzer (TA instruments Q5000 SA). The microbalance was calibrated using a 100 mg standard weight. The relative humidity (RH) sensor was calibrated at 5.0, 11.3, 32.8, 52.8, 75.3, and 84.3% RH (25° C.) using saturated salt solutions. Approximately 10-20 mg of the powder sample was placed in the quartz sample holder and dried at 3% RH at 60° C. The attainment of equilibrium was assumed when the weight change of the sample was <0.001 wt % in 5 min or by a maximum equilibration time of 300 minutes. […] Again, the attainment of equilibrium was assumed when the weight change of the sample was <0.001 wt % in 5 min or by a maximum equilibration time of 300 minutes. The weight gain at 60% RH is based on the weight after the initial drying step.
Water sorption and desorption studies of PF-07220060 monohydrate (Form 2), prepared as described in Example 2, were conducted according to General Method 6.
Water sorption and desorption studies of PF-07220060 hydrate (Form 1), prepared as described in Example 5B, were conducted according to General Method 6.
Comparative hygroscopicity experiments were performed using moisture sorption analysis according to General Method 6. PF-07220060 Forms 1, 2, 6, and 8 were evaluated using moisture sorption at 25° C., 60% RH. A form change at the completion of the run was not detected for any of the forms by PXRD.

[4] = Thermal stability by thermogravimetric analysis (TGA); conditions: listed as Form 2 (monohydrate), monohydrate
Protocol: Thermogravimetric analysis was conducted using a Discovery TGA (TA instruments) thermogravimetric analyzer. Samples of approximately 10 mg were weighed into aluminum pans and heated from ambient ([…]) to 250° C. at 10° C./minute heating rate under nitrogen purge (10 mL/min for both sample chamber and balance).
(§1) Thermal stability data were obtained through thermogravimetric analysis (TGA) according to General Method 4, and Differential Scanning Calorimetry (DSC) scan according to General Method 5A.

[5] = Thermal stability by Differential Scanning Calorimetry (DSC)
Protocol: Modulated Differential scanning calorimetry (DSC) measurements were performed with Discovery DSC (TA instruments) equipped with a refrigerated cooling accessory. All the experiments were performed in standard/Tzero aluminum pans. The cell constant was determined using indium and temperature calibration was performed using indium and tin as standards. All the measurements were done under continuous dry nitrogen purge (50 mL/min). Approximately 1-5 mg of solid sample was weighed into a Tzero aluminum pan, sealed non-hermetically and heated from −40° C. to 220° C. at 10° C./min heating rate. The experimental data were analyzed using commercially available software (TA Universal Analysis 2000/Trios software, TA Instruments).
as §1

[6] = Competitive slurry experiments in 2-propanol/1% water; conditions: based on the competition slurry experiments
Protocol: Competitive slurry experiments were performed between Form 1 and Form 2 (Entry 1), and between Form 6 and Form 2 (Entry 2), in 2-propanol/1% water. Entry 1: […] The solids were collected with vacuum filtration and analyzed with PXRD. PXRD data was consistent with PF-07220060 monohydrate (Form 2). Entry 2: […] The solids were collected with vacuum filtration and analyzed with PXRD. PXRD data was consistent with PF-07220060 monohydrate (Form 2).

[7] = control sample stored at ambient temperature
[8] = stressed samples: 70° C./75% RH and 70° C./5% RH for one week, 40° C./75% RH and 40° C./5% RH for 6 weeks

SMILES: CC(C)n1c(C(C)(C)O)nc2c(F)cc(-c3nc(N[C@@H]4CCOC[C@H]4O)ncc3Cl)cc21 [Form 2, 1,5-anhydro-3-({5-chloro-4-[4-fluoro-2-(2-hydroxypropan-2-yl)-1-(propan-2-yl)-1H-benzimidazol-6-yl]pyrimidin-2-yl}amino)-2,3-dideoxy-D-threo-pentitol monohydrate]
- % impurity RRT 0.89 ([1]; 70° C./5% RH (one week)): 0.57%
- % impurity RRT 1.31 ([1]; 70° C./5% RH (one week)): 0.99%
- % impurity RRT 0.89 ([1]; 70° C./75% RH (one week)): 0.58%
- % impurity RRT 1.31 ([1]; 70° C./75% RH (one week)): 1.00%
- % impurity RRT 0.89 [1, 7]: 0.57%
- % impurity RRT 1.31 [1, 7]: 1.00%
- change in appearance compared to the control sample [1, 8]: No significant change in appearance
- growth of individual impurities [1, 8]: ≤ 0.2%
- total impurities [1, 8]: ≤ 2.0%
- solid form change by PXRD ([2]; 40° C./5% RH for six weeks): disorder
- solid form change by PXRD ([2]; 40° C./75% RH for six weeks): No form change was detected
- solid form change by PXRD ([2]; 70° C./5% RH for one week): Slight disorder
- solid form change by PXRD ([2]; 70° C./75% RH for one week): No form change was detected
- form change at the completion of the moisture sorption run by PXRD ([3]; 25° C., 60% RH): not detected
- Weight gain (%) ([3]; 25 °C, RH 0%, listed as PF-07220060 monohydrate (Form 2), monohydrate): 0.00%
- Weight gain (%) ([3]; 25 °C, RH 10%, desorption, listed as PF-07220060 monohydrate (Form 2), monohydrate): 0.54%
- Weight gain (%) ([3]; 25 °C, RH 10%, sorption, listed as PF-07220060 monohydrate (Form 2), monohydrate): 0.45%
- Weight gain (%) ([3]; 25 °C, RH 20%, desorption, listed as PF-07220060 monohydrate (Form 2), monohydrate): 0.55%
- Weight gain (%) ([3]; 25 °C, RH 20%, sorption, listed as PF-07220060 monohydrate (Form 2), monohydrate): 0.49%
- Weight gain (%) ([3]; 25 °C, RH 30%, desorption, listed as PF-07220060 monohydrate (Form 2), monohydrate): 0.56%
- Weight gain (%) ([3]; 25 °C, RH 30%, sorption, listed as PF-07220060 monohydrate (Form 2), monohydrate): 0.51%
- Weight gain (%) ([3]; 25 °C, RH 40%, desorption, listed as PF-07220060 monohydrate (Form 2), monohydrate): 0.57%
- Weight gain (%) ([3]; 25 °C, RH 40%, sorption, listed as PF-07220060 monohydrate (Form 2), monohydrate): 0.52%
- Weight gain (%) ([3]; 25 °C, RH 50%, desorption, listed as PF-07220060 monohydrate (Form 2), monohydrate): 0.58%
- Weight gain (%) ([3]; 25 °C, RH 50%, sorption, listed as PF-07220060 monohydrate (Form 2), monohydrate): 0.54%
- Weight gain (%) ([3]; 25 °C, RH 60%, desorption, listed as PF-07220060 monohydrate (Form 2), monohydrate): 0.60%
- Weight gain (%) ([3]; 25 °C, RH 60%, sorption, listed as PF-07220060 monohydrate (Form 2), monohydrate): 0.56%
- Weight gain (%) ([3]; 25 °C, RH 70%, desorption, listed as PF-07220060 monohydrate (Form 2), monohydrate): 0.60%
- Weight gain (%) ([3]; 25 °C, RH 70%, sorption, listed as PF-07220060 monohydrate (Form 2), monohydrate): 0.57%
- Weight gain (%) ([3]; 25 °C, RH 80%, desorption, listed as PF-07220060 monohydrate (Form 2), monohydrate): 0.61%
- Weight gain (%) ([3]; 25 °C, RH 80%, sorption, listed as PF-07220060 monohydrate (Form 2), monohydrate): 0.59%
- Weight gain (%) ([3]; 25 °C, RH 90%, listed as PF-07220060 monohydrate (Form 2), monohydrate): 0.62%
- Weight gain (%) ([3]; 60 °C, RH 0% (initial drying step)): 0.00%
- Weight Gain (%) at 25° C., 60% RH ([3]; comparative summary of Forms 1, 2, 6 and 8, monohydrate): <1%
- hygroscopicity relative to Form 8 and Form 1 ([3]; moisture sorption at 25° C., 60% RH): reduced hygroscopicity
- Thermal stability via TGA (° C.) [4]: 60 °C
- thermal stability relative to Form 1 and Form 8 ([5]; TGA and DSC): improved thermal stability
- Thermal stability via DSC (° C.) ([5]; listed as Form 2 (monohydrate), monohydrate): 50 °C
- relative humidity above which the form is thermodynamically stable [6]: above 15 % RH
